Assay results as given in ChEMBL document CHEMBL1201862, “PubChem BioAssay data set” (2004).
Active and inactive are the calls of the source.

Legend:
[1] = target: T1, High affinity choline transporter 1 (Homo sapiens, UniProt Q9GZV3); experiment: human choline transporter blockers, potency – cell-based, 10-point CRC, membrane potential dye, dose response (AID 588401); assay type: functional;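 further: membrane potential dye fluorescence of choline-evoked depolarization via CHT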
T1 sequence (Q9GZV3 whole entry): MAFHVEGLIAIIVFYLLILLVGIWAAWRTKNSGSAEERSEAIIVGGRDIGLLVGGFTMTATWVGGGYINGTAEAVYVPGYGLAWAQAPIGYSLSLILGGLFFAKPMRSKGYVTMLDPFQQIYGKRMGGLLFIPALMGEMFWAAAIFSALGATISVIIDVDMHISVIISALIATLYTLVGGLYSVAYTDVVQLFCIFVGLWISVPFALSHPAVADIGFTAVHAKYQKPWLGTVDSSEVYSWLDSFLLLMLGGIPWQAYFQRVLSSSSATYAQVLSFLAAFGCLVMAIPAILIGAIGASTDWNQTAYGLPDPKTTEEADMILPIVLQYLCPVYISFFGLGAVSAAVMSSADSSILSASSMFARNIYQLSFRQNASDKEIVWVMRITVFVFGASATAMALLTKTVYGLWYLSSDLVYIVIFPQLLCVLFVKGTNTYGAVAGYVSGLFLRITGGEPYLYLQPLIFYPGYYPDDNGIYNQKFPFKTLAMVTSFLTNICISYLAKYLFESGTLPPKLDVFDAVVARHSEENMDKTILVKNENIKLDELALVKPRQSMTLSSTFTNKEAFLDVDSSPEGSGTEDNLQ

[2] = target: T1, High affinity choline transporter 1; experiment: human choline transporter blockers, potency – cell-based, 5-point CRC, membrane potential dye, dose response (AID 504840); assay type: functional
[3] = target: T2, Calpain-2 catalytic subunit (Sus scrofa, UniProt P43367); experiment: m-calpain protease blockers, concentration series – biochemical, fluorogenic peptide substrate, dose response (AID 1420); assay type: functional
T2 sequence (P43367 whole entry): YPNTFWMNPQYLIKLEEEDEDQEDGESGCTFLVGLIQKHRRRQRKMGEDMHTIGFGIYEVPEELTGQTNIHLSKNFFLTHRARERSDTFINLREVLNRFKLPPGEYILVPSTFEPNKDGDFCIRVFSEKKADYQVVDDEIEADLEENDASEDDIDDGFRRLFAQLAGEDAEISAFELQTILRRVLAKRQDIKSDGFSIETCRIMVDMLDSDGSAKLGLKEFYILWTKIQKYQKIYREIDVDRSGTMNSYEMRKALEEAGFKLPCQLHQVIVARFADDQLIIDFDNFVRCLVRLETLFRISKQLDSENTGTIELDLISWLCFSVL

[4] = HPDE-C7 pancreatic duct cell viability loss – fluorescence, HTS (AID 430); assay type: functional, cell-based; conditions: Homo sapiens
BJ [5] = experiment: cells; assay type: functional, cell-based; conditions: Homo sapiens
[6] = A549 cell cytotoxicity, dose response, cytotoxicity control, plate reader, cherry-pick, antagonist series (AID 743412); assay type: functional, cell-based
[7] = cAMP pathway inhibition in counterscreen cell line – TR-FRET cAMP detection, counter-screen for MC4R biased antagonist project, dose response (AID 602305); assay type: functional, cell-based;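 further: U2OS cells stimulated with forskolin near its EC80 as the cAMP inducer; potency is for inhibition of forskolin-stimulated cAMP signaling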
[8] = luciferase reporter signal suppression in cells – H4 neuroglioma cells, luminescence, dose response (AID 1990); assay type: functional, cell-based
BJ [9] = experiment: BJ-TERT fibroblast viability loss – cell-based, RAS-independent, luminescence, dose response (AID 1933); assay type: functional; conditions: Homo sapiens
[10] = blockade of melanocortin 4 receptor signaling – cell-based, plate reader, cherry pick, counter-screen for LGR2 antagonist project, dose response (AID 743444); assay type: functional;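 further: transfected HEK 293 cells stimulated with alpha-MSH peptide; potency of inhibitors of the alpha-MSH evoked signal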
[11] = DRD fibroblast viability loss – cell-based, non-viral oncogenic, luminescence, dose response (AID 1934); assay type: functional; conditions: Homo sapiens
[12] = reduced cellular PGC1a acetyl-lysine signal – cell-based, cherry-picked samples, dose response (AID 720514); assay type: functional;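 further: potency may reflect raised or lowered acetylation signal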
[13] = alpha-synuclein stem-loop luciferase translation blockers – H4 neuroglioma cells, luminescence, confirmation (AID 1988); assay type: functional, cell-based
[14] = viability loss in HEK293 cells – cell-based, plate reader, cherry-picked samples, cytotoxicity control, dose response (AID 743446); assay type: functional
BJ [15] = experiment: BJ-TERT-LT-ST fibroblast viability loss – cell-based, RAS-independent, luminescence, dose response (AID 1935); assay type: functional; conditions: Homo sapiens;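 further: BJ fibroblasts immortalized with TERT plus LT and ST oncogenes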
[16] = Luminescence Cell-Based Dose Response HTS to Identify Inhibitors of 5'UTR Stem-Loop Driven Prion Protein mRNA Translation in H4 Neuroglioblastoma Cells. [Related pubchem assays: 1827 (Project Summary), 1813 (Primary HTS)]; assay type: functional
[17] = viability loss of HPDE-C7K cells – cell-based, fluorescence, HTS, primary screen (AID 431); assay type: functional; conditions: Homo sapiens
[18] = toxicity toward HepG2 liver cells – cell-based, plate reader, cherry-pick, antagonist series, cytotoxicity control, dose response (AID 743416); assay type: functional
[19] = blockers of bursicon-stimulated LGR2 cAMP reporter – cell-based, HEK293, CRE-luciferase reporter, cherry pick, set 2, dose response (AID 743343); assay type: functional;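 further: transfected cells were stimulated with diluted bursicon conditioned medium after compound addition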
Melanocortin receptor 4 = Melanocortin receptor 4 (Homo sapiens, UniProt P32245); experiment: inhibitors of MC4R cAMP signaling – cell-based, TR-FRET, biased antagonists, dose response (AID 602298); assay type: functional;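 further: antagonist potency against agonist-stimulated cAMP production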
Chain of Melanocortin receptor 4 (P32245 whole entry): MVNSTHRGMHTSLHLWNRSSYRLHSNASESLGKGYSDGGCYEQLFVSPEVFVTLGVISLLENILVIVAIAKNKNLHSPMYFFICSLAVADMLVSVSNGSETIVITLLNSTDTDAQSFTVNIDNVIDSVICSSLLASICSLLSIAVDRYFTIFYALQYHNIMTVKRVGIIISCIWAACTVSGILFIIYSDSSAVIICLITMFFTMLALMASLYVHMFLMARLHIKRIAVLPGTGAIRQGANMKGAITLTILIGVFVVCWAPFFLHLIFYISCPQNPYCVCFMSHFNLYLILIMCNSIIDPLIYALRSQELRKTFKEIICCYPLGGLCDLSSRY

[20] = target: Serine/threonine-protein kinase D3 (Homo sapiens, UniProt O94806); assay type: functional;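 further: determined within a kinase panel screen, with PRKCN as the panel member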
Chain of Serine/threonine-protein kinase D3 (O94806 whole entry): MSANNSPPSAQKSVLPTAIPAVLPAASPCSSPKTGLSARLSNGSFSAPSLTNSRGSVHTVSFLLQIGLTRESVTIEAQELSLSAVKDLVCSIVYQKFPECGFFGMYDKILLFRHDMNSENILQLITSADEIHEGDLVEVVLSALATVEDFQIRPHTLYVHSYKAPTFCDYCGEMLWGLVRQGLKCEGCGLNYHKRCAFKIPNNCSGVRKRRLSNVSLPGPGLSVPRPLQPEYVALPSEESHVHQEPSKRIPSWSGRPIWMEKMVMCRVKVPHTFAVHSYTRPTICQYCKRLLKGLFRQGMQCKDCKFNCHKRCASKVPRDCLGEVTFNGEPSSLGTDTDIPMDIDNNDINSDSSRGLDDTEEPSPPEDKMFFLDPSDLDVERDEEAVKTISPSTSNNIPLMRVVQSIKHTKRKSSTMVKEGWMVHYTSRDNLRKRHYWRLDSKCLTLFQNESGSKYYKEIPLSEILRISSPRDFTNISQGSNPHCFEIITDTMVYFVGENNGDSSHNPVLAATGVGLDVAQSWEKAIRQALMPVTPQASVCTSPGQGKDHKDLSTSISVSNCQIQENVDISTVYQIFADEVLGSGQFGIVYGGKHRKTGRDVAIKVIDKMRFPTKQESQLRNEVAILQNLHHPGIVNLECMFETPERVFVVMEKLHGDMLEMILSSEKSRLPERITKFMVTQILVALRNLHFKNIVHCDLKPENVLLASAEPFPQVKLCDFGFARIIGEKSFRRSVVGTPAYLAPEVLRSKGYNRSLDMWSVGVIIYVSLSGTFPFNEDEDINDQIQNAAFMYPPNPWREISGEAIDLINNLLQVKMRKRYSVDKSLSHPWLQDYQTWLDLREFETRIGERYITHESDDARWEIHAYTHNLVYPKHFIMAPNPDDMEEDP

[21] = target: Serine/threonine-protein kinase pim-2 (Homo sapiens, UniProt Q9P1W9); assay type: functional;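 further: value comes from a broad kinase panel profiling study in which PIM2 was one of the panel members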
Chain of Serine/threonine-protein kinase pim-2 (Q9P1W9 whole entry): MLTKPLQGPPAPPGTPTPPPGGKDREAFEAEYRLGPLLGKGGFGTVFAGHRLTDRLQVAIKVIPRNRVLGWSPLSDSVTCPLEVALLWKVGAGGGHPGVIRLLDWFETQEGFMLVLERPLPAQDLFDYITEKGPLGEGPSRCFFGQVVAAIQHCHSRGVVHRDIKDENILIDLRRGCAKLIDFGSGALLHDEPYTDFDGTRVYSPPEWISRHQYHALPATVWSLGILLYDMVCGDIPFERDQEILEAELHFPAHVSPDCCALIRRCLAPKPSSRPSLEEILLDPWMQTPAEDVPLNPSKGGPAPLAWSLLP

[22] = target: Serine/threonine-protein kinase D2 (Homo sapiens, UniProt Q9BZL6); assay type: functional;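 further: measured against PRKD2 as one member of a kinome-wide kinase profiling panel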
Chain of Serine/threonine-protein kinase D2 (Q9BZL6 whole entry): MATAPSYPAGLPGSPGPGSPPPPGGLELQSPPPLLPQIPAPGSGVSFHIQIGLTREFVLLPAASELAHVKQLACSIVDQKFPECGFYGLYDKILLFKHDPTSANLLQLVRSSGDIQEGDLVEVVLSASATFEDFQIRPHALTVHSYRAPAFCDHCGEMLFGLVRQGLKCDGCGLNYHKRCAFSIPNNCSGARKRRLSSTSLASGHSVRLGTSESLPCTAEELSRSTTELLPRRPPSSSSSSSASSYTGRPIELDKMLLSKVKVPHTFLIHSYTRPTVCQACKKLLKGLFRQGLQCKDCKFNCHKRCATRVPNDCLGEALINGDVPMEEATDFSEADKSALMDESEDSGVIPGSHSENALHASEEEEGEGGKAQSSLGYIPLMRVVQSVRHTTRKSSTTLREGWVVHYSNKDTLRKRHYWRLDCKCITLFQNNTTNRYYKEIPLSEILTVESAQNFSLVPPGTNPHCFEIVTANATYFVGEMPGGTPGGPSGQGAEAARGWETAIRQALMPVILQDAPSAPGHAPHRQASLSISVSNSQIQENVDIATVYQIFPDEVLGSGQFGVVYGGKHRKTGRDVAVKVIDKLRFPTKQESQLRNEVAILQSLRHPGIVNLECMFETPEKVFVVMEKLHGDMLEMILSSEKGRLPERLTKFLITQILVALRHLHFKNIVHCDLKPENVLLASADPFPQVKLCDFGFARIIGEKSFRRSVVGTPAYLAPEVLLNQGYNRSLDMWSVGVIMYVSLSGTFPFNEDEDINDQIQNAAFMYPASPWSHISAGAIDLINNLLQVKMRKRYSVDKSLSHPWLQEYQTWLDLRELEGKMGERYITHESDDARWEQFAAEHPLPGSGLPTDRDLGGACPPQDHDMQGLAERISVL

[23] = target: Dual specificity tyrosine-phosphorylation-regulated kinase 1A (Homo sapiens, UniProt Q13627); assay type: functional;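 further: measured against DYRK1A as one member of a broad kinome profiling panel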
[24] = target: Dual specificity protein kinase CLK2 (Homo sapiens, UniProt P49760); assay type: functional
Chain of Dual specificity protein kinase CLK2 (P49760 whole entry): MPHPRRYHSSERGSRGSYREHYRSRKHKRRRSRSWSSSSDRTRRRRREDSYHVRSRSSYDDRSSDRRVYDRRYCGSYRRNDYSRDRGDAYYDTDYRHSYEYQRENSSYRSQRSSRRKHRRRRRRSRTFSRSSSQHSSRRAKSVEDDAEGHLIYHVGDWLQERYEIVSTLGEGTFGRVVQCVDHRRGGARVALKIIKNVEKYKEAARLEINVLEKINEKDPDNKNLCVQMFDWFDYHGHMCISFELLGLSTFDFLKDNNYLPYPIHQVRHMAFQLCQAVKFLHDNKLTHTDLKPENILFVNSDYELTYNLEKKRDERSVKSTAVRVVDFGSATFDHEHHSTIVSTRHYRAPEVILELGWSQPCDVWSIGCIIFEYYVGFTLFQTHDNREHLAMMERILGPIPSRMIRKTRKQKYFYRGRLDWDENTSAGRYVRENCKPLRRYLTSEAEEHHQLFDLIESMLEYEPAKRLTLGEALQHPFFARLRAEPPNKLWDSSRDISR

CC(C)CCN=C(S)Nc1ccc([N+](=O)[O-])cc1
> 50 µM (not active): IC50 [3]
active: IC50 [1] 8.43 µM | IC50 [2] 9.34 µM

C[S+]([O-])c1nc(-c2ccc(Br)cc2)cc(-c2ccccc2)c1C#N (stereo not given)
inactive: IC50 [7] > 64.6 µM
active: EC50 [4] 1.78 µM | EC50 (BJ [5]) 5.13 µM | AC50 [6] 3.25 µM | EC50 [8] 7.72 µM | EC50 (BJ [9]) 3.04 µM | AC50 [10] 25.1 µM | EC50 [11] 2.91 µM | AC50 [12] 5.21 µM | EC50 [13] 3.41 µM | AC50 [14] 7.73 µM | EC50 (BJ [15]) 2.41 µM | EC50 [16] 5.38 µM | EC50 [17] 2.18 µM | AC50 [18] 11.2 µM | AC50 [19] 19.8 µM | IC50 (Melanocortin receptor 4) 1.28 µM

Cn1ccc2c(-c3ccccc3F)nc(N(C(N)=O)c3c(F)cccc3F)nc21
active: Ki [20] 2 µM | Ki [21] 1.26 µM | Ki [22] 3.16 µM | Ki [23] 3.16 µM | Ki [24] 7.94 µM
